# According to patent US10214507B2, “Carbazole-containing amides, carbamates, and ureas as cryptochrome modulators” (Reset Therapeutics, Inc., priority 2014, dated 2019):
# Test system: stable U20S reporter cells harboring Per2-dLuc
# Assay: Per2 assay for evaluating the potency of test compounds (circadian luciferase reporter)
# Assay type: cell-based
# Details: amplitude of Per2-dLuc luminescence vs log concentration
# Protocol: Compounds were screened by using a high-throughput circadian assay system as previously described in Zhang, E. E. et al. Cell, 2009, 139, 199-210. In brief, stable U20S reporter cells harboring Per2-dLuc were plated at a density of 30,000 cells/well in Corning 96-well, solid white, flat bottom, TC-treated microplates (Corning®), and incubated for 48 hours at 37° C. in the presence of 5% CO2 in a medium of Dulbecco's Modified Eagle Medium (DMEM) supplemented with 10% fetal bovine serum (FBS) and penicillin (100 units/mL)-streptomycin (100 μg/mL). […] DMSO stocks are then serially diluted in DMSO, typically diluting 3-fold for each dilution step. Following the 48 h period, cell culture medium is removed from plated cells and cells are synchronized with 200 μL/well of complete cell culture medium (described above), supplemented with 5 μM forskolin (Tocris®) and 1 mM beetle luciferin (Promega®). Immediately following synchronization, 1 μL of compound dilution is added to each well. Plates are sealed, shaken briefly, and gene expression was monitored by measuring luminescence (Tecan® Infinite M200 or Tecan® Infinite M200 Pro) continuously for a minimum of 3 days at 35° C. Raw luminescence data (counts) are first analyzed using Multicycle™ software (Actimetrics, Inc.) to determine the amplitude (amp), period, and phase (phz) for each compound concentration. The period length for control wells (i.e. no compound, DMSO only) should be 26-30 h. Amp data are then plotted against the logarithm compound concentration (M) and analyzed by nonlinear regression analysis to determine the EC50.
row,SMILES,EC50 [nM]
1,"CCC1CCC(=O)N1CC(C)(O)Cn1c2ccc(F)cc2c2cc(F)ccc21 (stereo not shown) [Compound 33, 1-(3-(3,6-difluoro-9H-carbazol-9-yl)-2-hydroxy-2-methylpropyl)-5-ethylpyrrolidin-2-one]",625
2,"C[C@@](O)(CN1CC[C@H](F)C1=O)Cn1c2ccc(F)cc2c2cc(F)ccc21 [Compound 125, (S)-1-((S)-3-(3,6-difluoro-9H-carbazol-9-yl)-2-hydroxy-2-methylpropyl)-3-fluoropyrrolidin-2-one]",451
3,"CC(C)N1CCN(CC(O)Cn2c3ccccc3c3ccccc32)C1=O (stereo not shown) [Compound 98, 1-(3-(9H-carbazol-9-yl)-2-hydroxypropyl)-3-isopropylimidazolidin-2-one]",269
4,"C[C@@H]1CCC(=O)N(C[C@H](O)Cn2c3ccccc3c3ccccc32)C1 [Compound 131, (R)-1-((R)-3-(9H-carbazol-9-yl)-2-hydroxypropyl)-5-methylpiperidin-2-one]",280
5,"O=C1C(c2ccccc2)CCN1CC(O)Cn1c2ccc(F)cc2c2cc(F)ccc21 (stereo not shown) [Compound 53, 1-(3-(3,6-difluoro-9H-carbazol-9-yl)-2-hydroxypropyl)-3-phenylpyrrolidin-2-one]",1340
6,"CC1CCC(=O)N(CC(C)(O)Cn2c3ccc(F)cc3c3cc(F)ccc32)C1 (stereo not shown) [Compound 38, 1-(3-(3,6-difluoro-9H-carbazol-9-yl)-2-hydroxy-2-methylpropyl)-5-methylpiperidin-2-one]",1220
7,"CC(C)C1CC(=O)N(CC(O)Cn2c3ccc(F)cc3c3cc(F)ccc32)C1 (stereo not shown) [Compound 41, 1-(3-(3,6-difluoro-9H-carbazol-9-yl)-2-hydroxypropyl)-4-isopropylpyrrolidin-2-one]",373
8,"CC(O)(CN1CCCCC1=O)Cn1c2ccccc2c2ccccc21 (stereo not shown) [Compound 66, 1-(3-(9H-carbazol-9-yl)-2-hydroxy-2-methylpropyl)piperidin-2-one]",523
9,"CC(O)(CN1CCCC(C2CCCCC2)C1=O)Cn1c2ccc(F)cc2c2cc(F)ccc21 (stereo not shown) [Compound 21, 3-cyclohexyl-1-(3-(3,6-difluoro-9H-carbazol-9-yl)-2-hydroxy-2-methylpropyl)piperidin-2-one]",1040
10,"O=C1N(CC(O)Cn2c3ccccc3c3ccccc32)CCCC1(F)F (stereo not shown) [Compound 69, 1-(3-(9H-carbazol-9-yl)-2-hydroxypropyl)-3,3-difluoropiperidin-2-one]",137
11,"CC1CC(=O)N(CC(C)(O)Cn2c3ccc(F)cc3c3cc(F)ccc32)C1 (stereo not shown) [Compound 44, 1-(3-(3,6-difluoro-9H-carbazol-9-yl)-2-hydroxy-2-methylpropyl)-4-methylpyrrolidin-2-one]",1060
12,"C[C@H]1CCC(=O)N(C[C@@H](O)Cn2c3ccccc3c3ccccc32)C1 [Compound 132, (S)-1-((S)-3-(9H-carbazol-9-yl)-2-hydroxypropyl)-5-methylpiperidin-2-one]",1130
13,"CCN1CCCN(CC(C)(O)Cn2c3ccc(F)cc3c3cc(F)ccc32)C1=O (stereo not shown) [Compound 87, 1-(3-(3,6-difluoro-9H-carbazol-9-yl)-2-hydroxy-2-methylpropyl)-3-ethyltetrahydropyrimidin-2(1H)-one]",317
14,"O=C1[C@@H]2CC[C@@H](C2)N1C[C@H](O)Cn1c2ccc(F)cc2c2cc(F)ccc21 [Compound 104, (1S,4R)-2-((R)-3-(3,6-difluoro-9H-carbazol-9-yl)-2-hydroxypropyl)-2-azabicyclo[2.2.1]heptan-3-one]",115
15,"O=C1[C@@H](F)CCN1C[C@H](O)Cn1c2ccccc2c2ccccc21 [Compound 122, (S)-1-((R)-3-(9H-carbazol-9-yl)-2-hydroxypropyl)-3-fluoropyrrolidin-2-one]",263
16,"O=C1NCCCN1CC(O)Cn1c2ccc(F)cc2c2cc(F)ccc21 (stereo not shown) [Compound 71, 1-(3-(3,6-difluoro-9H-carbazol-9-yl)-2-hydroxypropyl)tetrahydropyrimidin-2(1H)-one]",188
17,"O=C1[C@@H]2CC[C@@H](C2)N1C[C@H](O)Cn1c2ccccc2c2ccccc21 [Compound 106, (1S,4R)-2-((R)-3-(9H-carbazol-9-yl)-2-hydroxypropyl)-2-azabicyclo[2.2.1]heptan-3-one]",220
18,"CC(O)(CN1Cc2ccccc2NC1=O)Cn1c2ccc(F)cc2c2cc(F)ccc21 (stereo not shown) [Compound 102, 3-(3-(3,6-difluoro-9H-carbazol-9-yl)-2-hydroxy-2-methylpropyl)-3,4-dihydroquinazolin-2(1H)-one]",455
19,"O=C1COCCN1CC(O)Cn1c2ccc(F)cc2c2cc(F)ccc21 (stereo not shown) [Compound 55, 4-(3-(3,6-difluoro-9H-carbazol-9-yl)-2-hydroxypropyl)morpholin-3-one]",738

row,SMILES,EC50 [nM]
1,"O=C1N(CC(O)Cn2c3ccc(F)cc3c3cc(F)ccc32)CCN1C1CCC1 (stereo not shown) [Compound 93, 1-cyclobutyl-3-(3-(3,6-difluoro-9H-carbazol-9-yl)-2-hydroxypropyl)imidazolidin-2-one]",129
2,"CC(O)(CN1CCCN(C2CCCCC2)C1=O)Cn1c2ccc(F)cc2c2cc(F)ccc21 (stereo not shown) [Compound 82, 1-cyclohexyl-3-(3-(3,6-difluoro-9H-carbazol-9-yl)-2-hydroxy-2-methylpropyl)tetrahydropyrimidin-2(1H)-one]",1190
3,"CCC1CC(=O)N(CC(C)(O)Cn2c3ccc(F)cc3c3cc(F)ccc32)C1 (stereo not shown) [Compound 46, 1-(3-(3,6-difluoro-9H-carbazol-9-yl)-2-hydroxy-2-methylpropyl)-4-ethylpyrrolidin-2-one]",618
4,"C[C@@](O)(CN1CC[C@@H](F)C1=O)Cn1c2ccc(F)cc2c2cc(F)ccc21 [Compound 126, (R)-1-((S)-3-(3,6-difluoro-9H-carbazol-9-yl)-2-hydroxy-2-methylpropyl)-3-fluoropyrrolidin-2-one]",958
5,"C[C@@H]1CCN(C[C@H](O)Cn2c3ccccc3c3ccccc32)C1=O [Compound 118, (R)-1-((R)-3-(9H-carbazol-9-yl)-2-hydroxypropyl)-3-methylpyrrolidin-2-one]",120
6,"O=C1N(CC(O)Cn2c3ccc(F)cc3c3cc(F)ccc32)CCN1C1CCCCC1 (stereo not shown) [Compound 88, 1-cyclohexyl-3-(3-(3,6-difluoro-9H-carbazol-9-yl)-2-hydroxypropyl)imidazolidin-2-one]",310
7,"CC(O)(CN1CCC(F)C1=O)Cn1c2ccc(F)cc2c2cc(F)ccc21 (stereo not shown) [Compound 10, 1-(3-(3,6-difluoro-9H-carbazol-9-yl)-2-hydroxy-2-methylpropyl)-3-fluoropyrrolidin-2-one]",487
8,"C[C@H]1CCC(=O)N(C[C@H](O)Cn2c3ccccc3c3ccccc32)C1 [Compound 129, (S)-1-((R)-3-(9H-carbazol-9-yl)-2-hydroxypropyl)-5-methylpiperidin-2-one]",748
9,"CN1CCCN(CC(O)Cn2c3ccccc3c3ccccc32)C1=O (stereo not shown) [Compound 2, 1-(3-(9H-carbazol-9-yl)-2-hydroxypropyl)-3-methyltetrahydropyrimidin-2(1H)-one]",736
10,"CC(O)(CN1CCCC(F)(F)C1=O)Cn1c2ccc(F)cc2c2cc(F)ccc21 (stereo not shown) [Compound 14, 1-(3-(3,6-difluoro-9H-carbazol-9-yl)-2-hydroxy-2-methylpropyl)-3,3-difluoropiperidin-2-one]",541
11,"C[C@H]1CCC(=O)N1C[C@H](O)Cn1c2ccc(F)cc2c2cc(F)ccc21 [Compound 110, (S)-1-((R)-3-(3,6-difluoro-9H-carbazol-9-yl)-2-hydroxypropyl)-5-methylpyrrolidin-2-one]",830
12,"C[C@H]1CCC(=O)N(C[C@H](O)Cn2c3ccc(F)cc3c3cc(F)ccc32)C1 [Compound 130, (S)-1-((R)-3-(3,6-difluoro-9H-carbazol-9-yl)-2-hydroxypropyl)-5-methylpiperidin-2-one]",895
13,"CC1CCN(CC(C)(O)Cn2c3ccc(F)cc3c3cc(F)ccc32)C(=O)C1 (stereo not shown) [Compound 36, 1-(3-(3,6-difluoro-9H-carbazol-9-yl)-2-hydroxy-2-methylpropyl)-4-methylpiperidin-2-one]",760
14,"C[C@](O)(CN1CC[C@@H](F)C1=O)Cn1c2ccccc2c2ccccc21 [Compound 127, (R)-1-((R)-3-(9H-carbazol-9-yl)-2-hydroxy-2-methylpropyl)-3-fluoropyrrolidin-2-one]",535
15,"O=C1CCCCN1CC(O)Cn1c2ccc(F)cc2c2cc(F)ccc21 (stereo not shown) [Compound 4, 1-(3-(3,6-difluoro-9H-carbazol-9-yl)-2-hydroxypropyl)piperidin-2-one]",192
16,"CC(O)(CN1CCCN(C2CCC2)C1=O)Cn1c2ccc(F)cc2c2cc(F)ccc21 (stereo not shown) [Compound 81, 1-cyclobutyl-3-(3-(3,6-difluoro-9H-carbazol-9-yl)-2-hydroxy-2-methylpropyl)tetrahydropyrimidin-2(1H)-one]",816
17,"O=C1C(C2CCCC2)CCN1CC(O)Cn1c2ccc(F)cc2c2cc(F)ccc21 (stereo not shown) [Compound 18, 3-cyclopentyl-1-(3-(3,6-difluoro-9H-carbazol-9-yl)-2-hydroxypropyl)pyrrolidin-2-one]",338
18,"C[C@@H]1CCC(=O)N(C[C@H](O)Cn2c3ccc(F)cc3c3cc(F)ccc32)C1 [Compound 134, (R)-1-((R)-3-(3,6-difluoro-9H-carbazol-9-yl)-2-hydroxypropyl)-5-methylpiperidin-2-one]",397
